Measured values reported in patent US20110257233A1, “BENZOISOTHIAZOLONES AS INHIBITORS OF PHOSPHOMANNOSE ISOMERASE” (Sanford-Burnham Medical Research Institute, priority 2010, published 2011).
Converted amounts (≈) assume the structure as drawn. Where two headings read alike, the source gives them in different places.

How the values were obtained:
[1] = tested on: Candida albicans (ATCC 10231); assay: Microbial in vitro assay 640000; type: cell-based
Procedure: The methods employed in this study were adapted from the scientific literature to maximize reliability and reproducibility. The reference standards were run as an integral part of each assay to ensure the validity of the results obtained. The assays were performed under conditions described below. The literature reference(s) for each assay are also provided as follows: Enza Di Modugno, Isabelle […]. […] Antimicrobial Agents Chemotherapy 3: 40-48; […]., Pursiano, […]. and Price, K. E. (1973) In Vitro Activity of the Tribactam GV 104326 against Gram-Positive, Gram-Negative, and Anaerobic Bacteria. Antimicrobial Agents and Chemotherapy, 38: 2362-2368, 1994; Enza Di Modugno, Isabelle […]. […] Antimicrobial Agents Chemotherapy 3: 40-48; and […]., Pursiano, […]. and Price, K. E. (1973) In vitro antibacterial activity of SM-7338, a carbapenem antibiotic with stability to dehydropeptidase I Antimicrobial Agents, Chemotherapy, 33 #2:215-222, 1989. 640000 Candida albicans (ATCC 10231); Culture Medium: Fluid Sabouraud Medium; […] Incubation Time/Temp: 20 hours @ 37° C.; […] Quantitation Method: Turbidity Measurement.

[2] = tested on: Cryptococcus neoformans (ATCC 24067); assay: Microbial in vitro assay 647000; type: cell-based
Procedure: The methods employed in this study were adapted from the scientific literature to maximize reliability and reproducibility. The reference standards were run as an integral part of each assay to ensure the validity of the results obtained. The assays were performed under conditions described below. The literature reference(s) for each assay are also provided as follows: Enza Di Modugno, Isabelle […]. […] Antimicrobial Agents Chemotherapy 3: 40-48; […]., Pursiano, […]. and Price, K. E. (1973) In Vitro Activity of the Tribactam GV 104326 against Gram-Positive, Gram-Negative, and Anaerobic Bacteria. Antimicrobial Agents and Chemotherapy, 38: 2362-2368, 1994; Enza Di Modugno, Isabelle […]. […] Antimicrobial Agents Chemotherapy 3: 40-48; and […]., Pursiano, […]. and Price, K. E. (1973) In vitro antibacterial activity of SM-7338, a carbapenem antibiotic with stability to dehydropeptidase I Antimicrobial Agents, Chemotherapy, 33 #2:215-222, 1989. […] Incubation Time/Temp: 2 days @37° C.; […] Time of Assessment: 2 days; Quantitation Method: Turbidity Measurement

[3] = biological target: T1, phosphomannose isomerase (PMI) (Homo sapiens, UniProt P34949); assay: PMI enzyme inhibition assay; type: biochemical
T1 sequence (P34949 1-423): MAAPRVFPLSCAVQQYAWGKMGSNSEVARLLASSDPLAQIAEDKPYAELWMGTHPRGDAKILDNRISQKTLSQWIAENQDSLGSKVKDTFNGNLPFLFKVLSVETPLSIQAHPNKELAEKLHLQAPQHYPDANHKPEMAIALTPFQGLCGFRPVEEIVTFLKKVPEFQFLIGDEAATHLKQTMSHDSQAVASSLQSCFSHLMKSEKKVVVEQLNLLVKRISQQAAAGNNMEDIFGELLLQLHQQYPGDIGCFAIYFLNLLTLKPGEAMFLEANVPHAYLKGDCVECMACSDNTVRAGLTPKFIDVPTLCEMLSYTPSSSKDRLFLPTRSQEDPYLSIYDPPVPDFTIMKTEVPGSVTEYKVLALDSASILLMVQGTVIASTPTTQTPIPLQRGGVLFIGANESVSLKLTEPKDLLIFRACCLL

[4] = biological target: T2, phosphomannomutase 2 (PMM) (Homo sapiens, UniProt O15305); assay: PMM enzyme inhibition assay; type: biochemical; conditions: for IC50: mean of at least three determinations
T2 sequence (O15305 1-246): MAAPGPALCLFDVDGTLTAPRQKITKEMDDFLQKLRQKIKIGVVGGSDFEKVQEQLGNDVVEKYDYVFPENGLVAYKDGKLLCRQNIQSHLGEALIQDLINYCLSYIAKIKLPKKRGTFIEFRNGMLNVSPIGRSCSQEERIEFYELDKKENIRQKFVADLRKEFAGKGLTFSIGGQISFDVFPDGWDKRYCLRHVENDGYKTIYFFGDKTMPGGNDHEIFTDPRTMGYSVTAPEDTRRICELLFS

[5] = tested on: protein glycosylation (mannose incorporated in proteins); assay: Cellular assay: 3H-mannose incorporated in proteins vs glycolysis; type: cell-based
Procedure: A cellular assay was developed and utilized to provide proof-of-concept for the potential of the optimized PMI inhibitors as CDG therapeutics. […] Briefly. cells were preincubated with inhibitors and labeled with 3H-Mannose and 35S-Met/Cys. After washing and lysis, 3H- and 35S amounts were determined in the proteins.

[6] = Microsomal stability, mouse; type: in vitro ADME; conditions: mouse liver microsomes
Source text: (§1) ADME (absorption, distribution, metabolism, elimination) provides an efficient means of discovering potential issues with respect to bioavailability and the potential for in vivo efficiency. The microsomal stability assay measures a compound's potential to be metabolized by the liver and can also identify metabolic liabilities. The plasma stability assay gives essential information on whether a compound will be degraded in plasma. Finally, the Parallel Artificial Membrane Permeability Assay (PAMPA) measures compound diffusion rates through an artificial membrane to give valuable information on a compounds potential for intestinal absorption and tissue and cell permeability. [table]

Plasma stability, human = type: in vitro ADME
Source text: as §1

[7] = Microsomal stability, human; type: in vitro ADME; conditions: human liver microsomes
Source text: as §1

Plasma stability, mouse = type: in vitro ADME
Source text: as §1

[8] = Parallel Artificial Membrane Permeability Assay (PAMPA); type: in vitro ADME; conditions: diffusion through a lipid membrane
Source text: as §1

[9] = tested on: Pseudomonas aeruginosa (ATCC 27853); assay: Microbial in vitro assay 614030; type: cell-based; conditions: reference standard run with the assay
Procedure: The methods employed in this study were adapted from the scientific literature to maximize reliability and reproducibility. The reference standards were run as an integral part of each assay to ensure the validity of the results obtained. The assays were performed under conditions described below. The literature reference(s) for each assay are also provided as follows: Enza Di Modugno, Isabelle […]. […] Antimicrobial Agents Chemotherapy 3: 40-48; […]., Pursiano, […]. and Price, K. E. (1973) In Vitro Activity of the Tribactam GV 104326 against Gram-Positive, Gram-Negative, and Anaerobic Bacteria. Antimicrobial Agents and Chemotherapy, 38: 2362-2368, 1994; Enza Di Modugno, Isabelle […]. […] Antimicrobial Agents Chemotherapy 3: 40-48; and […]., Pursiano, […]. and Price, K. E. (1973) In vitro antibacterial activity of SM-7338, a carbapenem antibiotic with stability to dehydropeptidase I Antimicrobial Agents, Chemotherapy, 33 #2:215-222, 1989.

[10] = reference standard run with the assay
[11] = mean of at least three determinations

C[C@@H]1[C@H](O)[C@@H](C)/C=C/C=C/C=C/C=C/C=C/C=C/C=C/[C@H](O[C@@H]2O[C@H](C)[C@@H](O)[C@H](N)[C@@H]2O)C[C@@H]2O[C@](O)(C[C@@H](O)C[C@@H](O)[C@H](O)CC[C@@H](O)C[C@@H](O)CC(=O)O[C@H]1C)C[C@H](O)[C@H]2C(=O)O [Amphotericin B Solubilized, reference compound]
CONCURRENT (reference compound data) [1, 10]: 0.1 µg/mL
CONCURRENT (reference compound data) [2, 10]: 0.1 µg/mL

O=c1c2ccccc2sn1-c1ccccc1 [Compound 1, 2-Phenyl-2-hydrobenzo[d]isothiazol-3-one]
IC50 [3]: 6.4 µM

Cc1cccc(-n2sc3ccccc3c2=O)c1 [Compound 3, 2-(3-Methylphenyl)-2-hydrobenzo[d]isothiazol-3-one]
IC50 [3, 11]: 6 µM

Cc1ccc(-n2sc3ccccc3c2=O)cc1 [Compound 4, 2-(4-Methylphenyl)-2-hydrobenzo[d]isothiazol-3-one]
IC50 [3, 11]: 3.6 µM

O=c1c2ccccc2sn1-c1cccc(C(F)(F)F)c1 [Compound 5, 2-[3(Trifluoromethyl)phenyl]-2-hydrobenzo[d]isothiazol-3-one]
IC50 [4]: > 20 µM
IC50 [3, 11]: 3.4 µM

O=c1c2ccccc2sn1-c1cccc(Cl)c1 [Compound 7, 2(3-Chlorophenyl)-2-hydrobenzo[d]isothiazol-3-one]
IC50 [3, 11]: 4.8 µM

COC(=O)c1cccc(-n2sc3ccccc3c2=O)c1 [Compound 9]
IC50 [4]: > 20 µM
IC50 [3, 11]: 4.9 µM

CCOC(=O)c1ccc(-n2sc3ccccc3c2=O)cc1 [Compound 10]
IC50 [3, 11]: 7.2 µM

CN(C)c1ccc(-n2sc3ccccc3c2=O)cc1 [Compound 12, 2-[4-(Dimethylamino)phenyl]-2-hydrobenzo[d]isothiazol-3-one]
IC50 [4]: 13.3 µM
IC50 [3, 11]: 1.9 µM
fold increase in the amount of mannose incorporated in proteins vs glycolysis ([5]; 50 μM): 1.0 fold

COc1cccc(-n2sc3ccccc3c2=O)c1 [Compound 15, 2-(3-Methoxyphenyl)-2-hydrobenzo[d]isothiazol-3-one]
IC50 [4]: > 20 µM
IC50 [3, 11]: 3.7 µM

Cc1ccccc1-n1sc2cc(F)ccc2c1=O [Compound 16, 6-Fluoro-2-o-tolylbenzo[d]isothiazol-3(2H)-one]
IC50 [3, 11]: 2.9 µM
Microsomal Stability (% remaining after 1 hour) [6]: 90.03 % remaining
Plasma Stability (% remaining after 1 hour) (Plasma stability, human): 49.7 % remaining
Microsomal Stability (% remaining after 1 hour) [7]: 90 % remaining
Plasma Stability (% remaining after 1 hour) (Plasma stability, mouse): 117.5 % remaining
fold increase in the amount of mannose incorporated in proteins vs glycolysis ([5]; 25.0 μM): 2.8 fold
fold increase in the amount of mannose incorporated in proteins vs glycolysis ([5]; 50 μM): 1.7 fold
fold increase in the amount of mannose incorporated in proteins vs glycolysis ([5]; 12.5 (head prints no unit)): 2.7 fold
Permeability [8]: Medium

Cc1ccc(C)c(-n2sc3cc(F)ccc3c2=O)c1 [Compound 17]
IC50 [4]: 7.3 µM
IC50 [3, 11]: 1.1 µM

COc1ccc(-n2sc3cc(F)ccc3c2=O)cc1 [Compound 18]
IC50 [4]: 12.9 µM

O=c1c2cc(F)ccc2sn1-c1ccccc1 [Compound 19, 5-Fluoro-2-phenylbenzo[d]isothiazol-3(2H)-one]
IC50 [4]: > 20 µM
PMM inhibition ([4]; tested up to 20 μM): inactive
IC50 [3, 11]: 1.3 µM
MIC ([1]; ATCC10231, Candida albicans, turbidity, read-out: minimal inhibitory concentration): 3000 µg/mL (≈ 12.2 mM)
MIC ([2]; ATCC24067, Cryptococcus neoformans, turbidity, read-out: minimal inhibitory concentration): 1000 µg/mL (≈ 4.08 mM)

Cc1ccc(C)c(-n2sc3ccc(F)cc3c2=O)c1 [Compound 20]
IC50 [4]: > 20 µM
IC50 [3, 11]: 1.9 µM
Microsomal Stability (% remaining after 1 hour) [6]: 85.04 % remaining
Plasma Stability (% remaining after 1 hour) (Plasma stability, human): 96.7 % remaining
Microsomal Stability (% remaining after 1 hour) [7]: 100 % remaining
Plasma Stability (% remaining after 1 hour) (Plasma stability, mouse): 99.4 % remaining
fold increase in the amount of mannose incorporated in proteins vs glycolysis ([5]; 25.0 μM): 2.3 fold
fold increase in the amount of mannose incorporated in proteins vs glycolysis ([5]; 50 μM): 3.2 fold
fold increase in the amount of mannose incorporated in proteins vs glycolysis ([5]; 12.5 (head prints no unit)): 1.9 fold
Permeability [8]: Medium

O=c1c2cc(F)ccc2sn1-c1ccc(F)cc1 [Compound 21, 5-Fluoro-2-(4-fluorophenyl)-2-hydrobenzo[d]isothiazol-3-one]
IC50 [4]: > 20 µM
Microsomal Stability (% remaining after 1 hour) [6]: 81.24 % remaining
Plasma Stability (% remaining after 1 hour) (Plasma stability, human): 0.0 % remaining
Microsomal Stability (% remaining after 1 hour) [7]: 24.93 % remaining
Plasma Stability (% remaining after 1 hour) (Plasma stability, mouse): 71.4 % remaining
Permeability [8]: High

COc1ccc(-n2sc3ccc(F)cc3c2=O)cc1 [Compound 22, 5-Fluoro-2-(4-methoxyphenyl)-2-hydrobenzo[d]isothiazol-3-one]
IC50 [4]: 9.1 µM
Microsomal Stability (% remaining after 1 hour) [6]: 84.06 % remaining
Plasma Stability (% remaining after 1 hour) (Plasma stability, human): 107.0 % remaining
Microsomal Stability (% remaining after 1 hour) [7]: 100 % remaining
Plasma Stability (% remaining after 1 hour) (Plasma stability, mouse): 96.3 % remaining
Permeability [8]: Low

O=c1c2cc(F)ccc2sn1-c1ccccc1F [Compound 23]
IC50 [3, 11]: 4.3 µM
Microsomal Stability (% remaining after 1 hour) [6]: 98.40 % remaining
Plasma Stability (% remaining after 1 hour) (Plasma stability, human): 35.7 % remaining
Microsomal Stability (% remaining after 1 hour) [7]: 27.66 % remaining
Plasma Stability (% remaining after 1 hour) (Plasma stability, mouse): 106.7 % remaining
fold increase in the amount of mannose incorporated in proteins vs glycolysis ([5]; 25.0 μM): 0.7 fold
fold increase in the amount of mannose incorporated in proteins vs glycolysis ([5]; 50 μM): 2.5 fold
fold increase in the amount of mannose incorporated in proteins vs glycolysis ([5]; 12.5 (head prints no unit)): 9.1 fold
Permeability [8]: Medium

O=c1c2cc(F)ccc2sn1-c1ccc(Cl)cc1 [Compound 24, 2-(4-Chlorophenyl)-5-fluoro-2-hydrobenzo[d]isothiazol-3-one]
IC50 [3, 11]: 1.8 µM

Gentamicin
CONCURRENT (reference compound data) [9]: 0.3 µg/mL
